Experimental data from ChEMBL document CHEMBL4219089, “Targeting RORs nuclear receptors by novel synthetic steroidal inverse agonists for autoimmune disorders” (Bioorg Med Chem, 2018).

Legend:
HepG2 [1] = assay: Cell cycle arrest in human HepG2 cells at 10 to 20 uM after 24 hrs by propidium iodide staining based flow cytometric analysis; type: ADME; details: hepg2, 24 h
[2] = target: T1, Nuclear receptor ROR-gamma (Homo sapiens) (UniProt P51449); assay: (§1) Inverse agonist activity at Gal4-fused RORgammat LBD (unknown origin) expressed in HEK293 cells measured after 48 hrs post transfection by dual-luciferase reporter gene assay; type: cell-based
T1 sequence (whole entry): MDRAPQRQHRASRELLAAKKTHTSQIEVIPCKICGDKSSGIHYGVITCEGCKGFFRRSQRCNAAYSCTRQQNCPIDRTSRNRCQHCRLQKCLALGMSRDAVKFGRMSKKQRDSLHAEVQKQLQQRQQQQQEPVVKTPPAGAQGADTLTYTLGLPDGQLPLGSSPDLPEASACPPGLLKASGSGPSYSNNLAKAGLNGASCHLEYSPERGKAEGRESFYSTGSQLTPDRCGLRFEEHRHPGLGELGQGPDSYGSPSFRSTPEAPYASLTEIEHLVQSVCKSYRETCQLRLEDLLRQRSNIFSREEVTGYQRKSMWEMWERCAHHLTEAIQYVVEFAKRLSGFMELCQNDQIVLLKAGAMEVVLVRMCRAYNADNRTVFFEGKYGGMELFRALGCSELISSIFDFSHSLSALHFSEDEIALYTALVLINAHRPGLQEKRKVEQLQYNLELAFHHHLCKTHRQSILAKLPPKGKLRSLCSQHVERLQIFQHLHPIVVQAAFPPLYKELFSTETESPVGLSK

[3] = target: T2, Nuclear receptor ROR-gamma (Homo sapiens, UniProt P51449); assay: as §1; type: cell-based
T2 sequence (P51449 whole entry): T1 sequence (whole entry)

Estrogen receptor [4] = target: T3, Estrogen receptor (Homo sapiens, UniProt P03372); assay: Estrogenic activity at estrogen receptor in human MCF7 cells assessed as increase in GREB1 gene expression at 2 uM after 24 hrs by qRT-PCR analysis; type: ADME, cell-based; details: mcf7, 24 h
T3 sequence (P03372 whole entry): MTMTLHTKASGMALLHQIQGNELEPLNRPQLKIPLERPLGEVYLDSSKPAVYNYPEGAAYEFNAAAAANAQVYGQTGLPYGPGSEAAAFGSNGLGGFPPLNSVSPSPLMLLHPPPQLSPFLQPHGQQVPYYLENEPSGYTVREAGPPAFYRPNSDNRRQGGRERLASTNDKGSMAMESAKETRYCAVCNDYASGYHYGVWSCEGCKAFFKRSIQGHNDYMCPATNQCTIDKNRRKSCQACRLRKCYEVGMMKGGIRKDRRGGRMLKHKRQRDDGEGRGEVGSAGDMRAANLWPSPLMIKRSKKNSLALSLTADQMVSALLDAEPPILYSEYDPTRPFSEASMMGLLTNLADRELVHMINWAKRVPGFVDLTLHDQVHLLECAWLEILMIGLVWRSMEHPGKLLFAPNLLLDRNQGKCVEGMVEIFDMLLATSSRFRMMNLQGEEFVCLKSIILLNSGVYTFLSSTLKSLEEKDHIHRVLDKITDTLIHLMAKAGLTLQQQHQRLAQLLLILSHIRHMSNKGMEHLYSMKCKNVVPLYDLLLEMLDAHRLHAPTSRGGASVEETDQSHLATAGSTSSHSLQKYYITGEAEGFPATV

Estrogen receptor [5] = target: T3, Estrogen receptor; assay: Estrogenic activity at estrogen receptor in human MCF7 cells assessed as increase in CXCL12 gene expression at 2 uM after 24 hrs by qRT-PCR analysis; type: ADME, cell-based; details: mcf7, 24 h
HEK293 [6] = assay: Cytotoxicity against HEK293 cells expressing GAL4-fused RORgammat assessed as effect on cell viability at 10 to 20 uM after 24 hrs by MTT assay; type: cell-based; details: human, hek293, 24 h
HEK293 [7] = assay: Cell cycle arrest in HEK293 cells expressing GAL4-fused RORgammat at 10 to 20 uM after 24 hrs by propidium iodide staining based flow cytometric method; type: ADME; details: human, hek293, 24 h
HEK293 [8] = assay: Cell cycle arrest in HEK293 cells at 10 to 20 uM after 24 hrs by propidium iodide staining based flow cytometric method; details: human, hek293, 24 h
HEK293 [9] = assay: Cytotoxicity against HEK293 cells assessed as effect on cell viability at 10 to 20 uM after 24 hrs by MTT assay; type: cell-based; details: human, hek293, 24 h
HepG2 [10] = assay: Cytotoxicity against human HepG2 cells assessed as effect on cell viability at 6.25 to 50 uM after 24 hrs by MTT assay; type: cell-based; details: hepg2, 24 h
HepG2 [11] = assay: Cytotoxicity against human HepG2 cells assessed as effect on cell viability at 25 to 50 uM after 24 hrs by MTT assay; type: cell-based; details: hepg2, 24 h
HepG2 [12] = assay: Cytotoxicity against human HepG2 cells assessed as effect on cell viability at 6.25 uM after 24 hrs by MTT assay; type: cell-based; details: hepg2, 24 h

Row | Structure (SMILES) | Activity [2] | IC50 [3] | Activity (Estrogen receptor [4]) | Activity (Estrogen receptor [5]) | Activity (HepG2 [1]) | Activity (HEK293 [6]) | Activity (HEK293 [7]) | Activity (HEK293 [8]) | Activity (HEK293 [9]) | Activity (HepG2 [10]) | Activity (HepG2 [11]) | Activity (HepG2 [12])
1 | COc1cc2c(cc1C13CC4CC(CC(C4)C1)C3)[C@H]1CC[C@]3(C)C=C(C(=O)O)C[C@H]3[C@@H]1CC2 | Dose-dependent effect | 6.8 µM | Not Active | Not Active | Non-Toxic | Non-Toxic | Non-Toxic | Non-Toxic | Non-Toxic | Non-Toxic |  | 
2 | C[C@]12CC[C@@H]3c4cc(-c5ccc(-c6ccccc6)cc5)c(O)cc4CC[C@H]3[C@@H]1CC(C(=O)O)C2O (stereo not given in full) |  |  |  |  |  |  |  |  |  |  |  | Toxic
3 | C[C@]12CC[C@@H]3c4cc(-c5ccccc5)c(O)cc4CC[C@H]3[C@@H]1CC(C(=O)O)C2O (stereo not given in full) |  |  |  |  |  |  |  |  |  |  |  | Toxic

Continued, in another order:

Row | Activity [2] | IC50 [3] | Activity (Estrogen receptor [4]) | Activity (Estrogen receptor [5]) | Structure (SMILES) | Activity (HepG2 [1]) | Activity (HEK293 [6]) | Activity (HEK293 [7]) | Activity (HEK293 [8]) | Activity (HEK293 [9]) | Activity (HepG2 [10]) | Activity (HepG2 [11]) | Activity (HepG2 [12])
4 | Dose-dependent effect | 6.5 µM | Active | Active | C[C@@]12C=C(C(=O)O)C[C@H]1[C@@H]1CCc3cc(O)c(C45CC6CC(CC(C6)C4)C5)cc3[C@H]1CC2 | Non-Toxic | Non-Toxic | Non-Toxic | Non-Toxic | Non-Toxic | Non-Toxic |  | 
5 | Dose-dependent effect | 4.4 µM | Not Active | Not Active | C[C@@]12C=C(C(=O)O)C[C@H]1[C@@H]1CCc3cc(O)c(C(=O)c4ccccc4)cc3[C@H]1CC2 | Non-Toxic | Non-Toxic | Non-Toxic | Non-Toxic | Non-Toxic |  | Toxic | 
6 | Dose-dependent effect | 4.7 µM |  |  | C[C@]12CC[C@@H]3c4cc(-c5cccc6c5oc5ccccc56)c(O)cc4CC[C@H]3[C@@H]1CC(C(=O)O)C2O (stereo not given in full) | Non-Toxic | Non-Toxic | Non-Toxic | Non-Toxic | Non-Toxic | Non-Toxic |  | 
